The record followed here is patent US20200165257A1, “INHIBITORS OF PHOSPHOINOSITIDE 3-KINASE AND HISTONE DEACETYLASE FOR TREATMENT OF CANCER” (THE UNITED STATES OF AMERICA, AS REPRESENTED BY THE …, priority 2017, published 2020).

The structures appear in SMILES notation. Like-named read-outs stand apart in the source and are kept apart here.

In one assay the target is PI3Kδ (Homo sapiens, UniProt O00329). Nature of the assay: PI3Kδ kinase assay (HTRF). The class given is biochemical. As to conditions: for inhibition at 1 µM: symbols ** / *, read-out: PI3Kδ Inhibition Activity (% Inhibition class). On the procedure: (§1) The PIP3 product is detected by displacement of biotin-PIP3 from an energy transfer complex consisting of Europium labeled anti-GST monoclonal antibody, a GST-tagged pleckstrin homology (PH) domain, biotinylated PIP3 and Streptavidin-Allophycocyanin (APC). […] The PIP3 product formed by PI 3-Kinase(h) activity displaces biotin-PIP3 from the complex resulting in a loss of energy transfer, and thus, a decrease in signal.
Chain of PI3Kδ (O00329 whole entry): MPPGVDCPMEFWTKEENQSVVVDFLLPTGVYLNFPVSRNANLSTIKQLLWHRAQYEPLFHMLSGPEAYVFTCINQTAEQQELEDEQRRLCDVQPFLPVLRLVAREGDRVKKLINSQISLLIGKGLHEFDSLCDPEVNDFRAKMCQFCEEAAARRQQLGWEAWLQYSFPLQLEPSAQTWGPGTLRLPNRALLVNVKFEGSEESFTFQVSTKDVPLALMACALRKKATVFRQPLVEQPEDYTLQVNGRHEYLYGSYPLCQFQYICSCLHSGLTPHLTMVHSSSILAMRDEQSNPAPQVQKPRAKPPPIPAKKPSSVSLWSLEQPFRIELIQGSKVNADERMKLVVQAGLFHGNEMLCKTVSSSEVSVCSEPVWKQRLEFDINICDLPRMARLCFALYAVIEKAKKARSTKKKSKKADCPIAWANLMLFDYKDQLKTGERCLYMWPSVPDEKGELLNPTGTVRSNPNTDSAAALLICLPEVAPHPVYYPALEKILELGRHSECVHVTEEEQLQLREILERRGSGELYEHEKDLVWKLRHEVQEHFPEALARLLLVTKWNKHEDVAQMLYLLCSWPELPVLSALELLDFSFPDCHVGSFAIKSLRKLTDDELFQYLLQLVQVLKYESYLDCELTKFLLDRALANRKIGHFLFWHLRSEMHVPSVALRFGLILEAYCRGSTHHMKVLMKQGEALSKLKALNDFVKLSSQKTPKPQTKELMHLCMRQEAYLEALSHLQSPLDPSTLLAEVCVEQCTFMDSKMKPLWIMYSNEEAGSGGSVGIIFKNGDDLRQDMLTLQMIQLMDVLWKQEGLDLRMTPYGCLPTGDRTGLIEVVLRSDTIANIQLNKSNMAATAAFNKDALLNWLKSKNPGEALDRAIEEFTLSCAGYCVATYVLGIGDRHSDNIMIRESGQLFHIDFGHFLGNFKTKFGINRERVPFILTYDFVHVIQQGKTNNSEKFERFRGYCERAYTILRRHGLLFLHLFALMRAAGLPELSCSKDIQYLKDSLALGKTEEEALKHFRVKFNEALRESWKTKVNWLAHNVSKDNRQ
Chain of PI3Kδ (P27986 whole entry partner): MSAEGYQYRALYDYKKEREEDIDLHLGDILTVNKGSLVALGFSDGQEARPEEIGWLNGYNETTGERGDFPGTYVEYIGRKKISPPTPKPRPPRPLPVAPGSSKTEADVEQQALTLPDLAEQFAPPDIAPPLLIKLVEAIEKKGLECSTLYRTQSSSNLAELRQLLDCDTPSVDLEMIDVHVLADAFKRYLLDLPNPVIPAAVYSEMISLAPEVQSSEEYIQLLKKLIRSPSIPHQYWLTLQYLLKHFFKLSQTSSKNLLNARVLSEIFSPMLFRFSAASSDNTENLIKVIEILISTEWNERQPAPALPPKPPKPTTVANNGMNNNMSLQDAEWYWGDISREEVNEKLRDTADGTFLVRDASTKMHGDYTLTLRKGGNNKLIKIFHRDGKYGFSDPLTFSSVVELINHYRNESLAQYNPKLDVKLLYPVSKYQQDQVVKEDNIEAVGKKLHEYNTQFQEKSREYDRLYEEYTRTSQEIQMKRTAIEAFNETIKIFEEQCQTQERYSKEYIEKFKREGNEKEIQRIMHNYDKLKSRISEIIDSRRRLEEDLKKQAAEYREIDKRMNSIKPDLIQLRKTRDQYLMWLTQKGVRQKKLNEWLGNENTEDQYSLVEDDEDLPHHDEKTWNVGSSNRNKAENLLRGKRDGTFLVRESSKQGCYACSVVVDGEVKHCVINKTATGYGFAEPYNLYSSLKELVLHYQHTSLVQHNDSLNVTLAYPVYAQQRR
(§2) First, the kinase reaction with PIP2 substrate is carried out in the presence of ATP, and the reaction is quenched with stop Solution, and then, finally detect by adding Detection Mixture followed by incubation.
(§3) HEPES 50 mM (pH7.0), NaN3 0.02%, BSA 0.01%, Orthovanadate 0.1 mM, 1% DMSO.
(§4) Detection buffer: HEPES 10 mM (pH7.0), BSA 0.02%, KF 0.16 M, EDTA 4 mM.
(§5) 10 μM PIP2 substrate (PI(4,5)P2)
(§6) 10 μM ATP under standard conditions
(§7) 1. Prepare substrate in freshly prepared Reaction Buffer.
(§8) 2. Deliver kinase into the substrate solution and gently mix.
(§9) 3. Deliver compounds in 100% DMSO into the kinase reaction mixture by Acoustic technology (Echo550; nanoliter range), incubate for 10 min at room temperature.
(§10) 4. Deliver ATP into the reaction mixture to initiate the reaction.
(§11) 5. Incubate for 30 min at 30° C.
(§12) 6. Quench the reaction with Stop Solution.
(§13) 7. Add Detection Mixture, and incubate for overnight.
(§14) The emission ratio is converted into μM PIP3 production based on PIP3 standard curves.
(§15) The nonlinear regression to obtain the standard curve and IC50 values are performed using Graphpad Prism software.

A further assay addresses T1, HDAC6 (Homo sapiens, UniProt Q9UBN7).
T1 sequence (Q9UBN7 1-1215): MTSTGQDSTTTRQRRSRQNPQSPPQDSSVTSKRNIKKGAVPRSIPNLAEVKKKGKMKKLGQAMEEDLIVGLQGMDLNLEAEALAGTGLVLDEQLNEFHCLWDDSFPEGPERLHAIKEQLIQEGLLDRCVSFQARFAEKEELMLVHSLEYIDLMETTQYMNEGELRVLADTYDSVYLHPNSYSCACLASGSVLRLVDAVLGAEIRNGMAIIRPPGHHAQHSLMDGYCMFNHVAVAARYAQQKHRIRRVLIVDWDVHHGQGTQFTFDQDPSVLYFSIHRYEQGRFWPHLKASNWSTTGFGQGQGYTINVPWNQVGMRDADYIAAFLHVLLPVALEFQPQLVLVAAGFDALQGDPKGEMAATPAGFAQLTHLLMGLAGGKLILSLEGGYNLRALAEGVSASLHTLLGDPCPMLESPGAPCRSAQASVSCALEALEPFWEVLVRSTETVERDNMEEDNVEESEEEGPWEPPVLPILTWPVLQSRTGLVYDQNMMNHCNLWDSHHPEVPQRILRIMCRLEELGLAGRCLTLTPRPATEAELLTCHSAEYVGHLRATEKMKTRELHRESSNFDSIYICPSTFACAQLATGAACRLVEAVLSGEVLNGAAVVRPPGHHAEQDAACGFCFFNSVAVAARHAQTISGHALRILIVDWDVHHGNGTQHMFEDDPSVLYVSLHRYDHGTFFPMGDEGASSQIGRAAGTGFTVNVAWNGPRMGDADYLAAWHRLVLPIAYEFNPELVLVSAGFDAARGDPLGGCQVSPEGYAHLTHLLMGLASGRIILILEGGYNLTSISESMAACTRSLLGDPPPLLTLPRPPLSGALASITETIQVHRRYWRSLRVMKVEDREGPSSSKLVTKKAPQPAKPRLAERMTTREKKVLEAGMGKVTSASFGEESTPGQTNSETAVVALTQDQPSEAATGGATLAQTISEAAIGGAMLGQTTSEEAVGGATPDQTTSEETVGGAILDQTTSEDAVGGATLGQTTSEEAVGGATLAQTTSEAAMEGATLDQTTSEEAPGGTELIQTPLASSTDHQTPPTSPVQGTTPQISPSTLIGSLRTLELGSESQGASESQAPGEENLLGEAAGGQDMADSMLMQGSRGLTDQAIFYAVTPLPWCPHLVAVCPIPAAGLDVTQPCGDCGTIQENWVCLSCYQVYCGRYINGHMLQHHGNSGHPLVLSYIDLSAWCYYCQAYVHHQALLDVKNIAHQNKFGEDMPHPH
The assay is described as follows: HDAC Fluorescent Activity Assay. Format: biochemical. To be noted: for inhibition at 1 µM: symbols ** / *, read-out: HDAC6 Inhibition Activity (% Inhibition class). The method, then:
This protocol is to determine the IC50s or percentage of inhibition values of the test compound against HDACs.
The HDAC Fluorescent Activity Assay is based on the unique Fluorogenic Substrate and Developer combination. […] First, the Fluorogenic Substrate, which comprises an acetylated lysine side chain, is incubated with a purified HDAC enzyme. Deacetylation of the substrate sensitizes the substrate so that, in the second step, treatment with the Developer produces a fluorophore.
Testing compounds were dissolved in 100% DMSO to specific concentration. […]
1. Deliver 2× enzyme in wells of reaction plate except No Enzyme control wells. Add buffer in No En wells.
2. Deliver compounds in 100% DMSO into the enzyme mixture by Acoustic technology (Echo550; nanoliter range). Spin down and pre-incubation.
3. Deliver 2× Substrate Mixture (Fluorogenic HDAC Substrate and co-factor if applicable) in all reaction wells to initiate the reaction. Spin and shake.
4. Incubate for 1-2 hr at 30° C. with seal.
5. Add Developer with Trichostatin A (or TMP269) to stop the reaction and to generate fluorescent color.
6. Fluorescence was read (excitatory, 360; emission, 460) using the EnVision Multilabel
7. Take endpoint reading for analysis after the development reaches plateau.
The percentages of enzyme activity (relative to DMSO controls) and IC50 values were calculated using the GraphPad Prism 4 program based on a sigmoidal dose-response equation.

In assay [1] the test system is Leukemia Cell Line CCRF-CEM. The assay is described as follows: cells. Format: cell-based. To be noted: Homo sapiens, read-out: inhibition of proliferation.
Assay [2] has as its system Leukemia Cell Line HL-60(TB). The class given is cell-based. To be noted: Homo sapiens.
Assay [3] relates to Melanoma Cell Line UACC-62. Nature of the assay: cells. The class given is cell-based. To be noted: Homo sapiens.
The subject of the next assay is Ovarian Cell Line IGROV1. Format: cell-based. As to conditions: Homo sapiens.
The subject of assay [4] is Breast Cancer Cell Line HS 578T. Format: cell-based. To be noted: Homo sapiens, read-out: inhibition of proliferation.
Assay [5] concerns Breast Cancer Cell Line MDA-MB-468. The assay is described as follows: cells. To be noted: Homo sapiens, MDA-MB-468, read-out: inhibition of proliferation.
Assay [6] has as its system Leukemia Cell Line MOLT-4. The class given is cell-based. To be noted: Homo sapiens.
Assay [7] deals with Leukemia Cell Line RPMI-8226. The class given is cell-based. To be noted: Homo sapiens.
A further assay has as its system Leukemia Cell Line SR. The assay is described as follows: cells. The class given is cell-based. As to conditions: Homo sapiens, read-out: inhibition of proliferation.
Another assay deals with PI3Kα (Homo sapiens, UniProt P42336). The assay is described as follows: PI3Kα kinase assay (HTRF). The class given is biochemical. The method, then:
as §1, §2, §3, §4, §5, §6, §7, §8, §9, §10, §11, §12, §13, §14, §15

A further assay deals with PI3Kβ (Homo sapiens, UniProt P42338). The assay is described as follows: PI3Kβ kinase assay (HTRF). Format: biochemical. The method, then: as §1, §2, §3, §4, §5, §6, §7, §8, §9, §10, §11, §12, §13, §14, §15
Chain of PI3Kβ (P42338 whole entry): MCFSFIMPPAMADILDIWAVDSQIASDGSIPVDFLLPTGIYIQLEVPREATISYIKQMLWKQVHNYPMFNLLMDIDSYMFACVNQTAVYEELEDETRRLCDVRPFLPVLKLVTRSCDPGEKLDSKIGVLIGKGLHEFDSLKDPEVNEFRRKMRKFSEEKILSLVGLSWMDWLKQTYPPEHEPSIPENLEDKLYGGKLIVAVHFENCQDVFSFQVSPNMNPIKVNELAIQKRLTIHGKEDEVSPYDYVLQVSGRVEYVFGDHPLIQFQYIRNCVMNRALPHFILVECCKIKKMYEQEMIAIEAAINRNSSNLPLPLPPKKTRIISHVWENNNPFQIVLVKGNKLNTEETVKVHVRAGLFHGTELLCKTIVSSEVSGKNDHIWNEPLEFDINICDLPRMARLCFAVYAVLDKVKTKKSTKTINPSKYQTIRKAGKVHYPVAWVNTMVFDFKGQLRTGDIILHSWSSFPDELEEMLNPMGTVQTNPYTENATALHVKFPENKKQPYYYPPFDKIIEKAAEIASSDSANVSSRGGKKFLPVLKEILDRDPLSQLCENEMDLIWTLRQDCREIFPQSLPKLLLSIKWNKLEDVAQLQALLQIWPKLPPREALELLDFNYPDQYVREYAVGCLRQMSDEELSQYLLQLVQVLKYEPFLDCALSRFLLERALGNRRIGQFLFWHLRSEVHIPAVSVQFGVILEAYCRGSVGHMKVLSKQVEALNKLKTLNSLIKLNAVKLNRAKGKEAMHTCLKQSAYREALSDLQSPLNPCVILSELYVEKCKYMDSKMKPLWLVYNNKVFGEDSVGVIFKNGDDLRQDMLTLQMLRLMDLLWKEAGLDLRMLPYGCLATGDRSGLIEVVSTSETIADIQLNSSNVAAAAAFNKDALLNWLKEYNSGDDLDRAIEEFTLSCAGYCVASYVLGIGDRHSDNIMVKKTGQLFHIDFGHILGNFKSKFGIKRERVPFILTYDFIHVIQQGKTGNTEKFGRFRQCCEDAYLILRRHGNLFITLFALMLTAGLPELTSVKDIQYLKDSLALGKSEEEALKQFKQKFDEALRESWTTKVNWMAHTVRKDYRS
Chain of PI3Kβ (P27986 whole entry partner): as the sequence (P27986 whole entry partner) above
Another assay deals with PI3Kγ (Homo sapiens, UniProt P48736). The assay is described as follows: PI3Kγ kinase assay (HTRF). The class given is biochemical. On the procedure: as §1, §2, §3, §4, §5, §6, §7, §8, §9, §10, §11, §12, §13, §14, §15
Chain of PI3Kγ (P48736 whole entry): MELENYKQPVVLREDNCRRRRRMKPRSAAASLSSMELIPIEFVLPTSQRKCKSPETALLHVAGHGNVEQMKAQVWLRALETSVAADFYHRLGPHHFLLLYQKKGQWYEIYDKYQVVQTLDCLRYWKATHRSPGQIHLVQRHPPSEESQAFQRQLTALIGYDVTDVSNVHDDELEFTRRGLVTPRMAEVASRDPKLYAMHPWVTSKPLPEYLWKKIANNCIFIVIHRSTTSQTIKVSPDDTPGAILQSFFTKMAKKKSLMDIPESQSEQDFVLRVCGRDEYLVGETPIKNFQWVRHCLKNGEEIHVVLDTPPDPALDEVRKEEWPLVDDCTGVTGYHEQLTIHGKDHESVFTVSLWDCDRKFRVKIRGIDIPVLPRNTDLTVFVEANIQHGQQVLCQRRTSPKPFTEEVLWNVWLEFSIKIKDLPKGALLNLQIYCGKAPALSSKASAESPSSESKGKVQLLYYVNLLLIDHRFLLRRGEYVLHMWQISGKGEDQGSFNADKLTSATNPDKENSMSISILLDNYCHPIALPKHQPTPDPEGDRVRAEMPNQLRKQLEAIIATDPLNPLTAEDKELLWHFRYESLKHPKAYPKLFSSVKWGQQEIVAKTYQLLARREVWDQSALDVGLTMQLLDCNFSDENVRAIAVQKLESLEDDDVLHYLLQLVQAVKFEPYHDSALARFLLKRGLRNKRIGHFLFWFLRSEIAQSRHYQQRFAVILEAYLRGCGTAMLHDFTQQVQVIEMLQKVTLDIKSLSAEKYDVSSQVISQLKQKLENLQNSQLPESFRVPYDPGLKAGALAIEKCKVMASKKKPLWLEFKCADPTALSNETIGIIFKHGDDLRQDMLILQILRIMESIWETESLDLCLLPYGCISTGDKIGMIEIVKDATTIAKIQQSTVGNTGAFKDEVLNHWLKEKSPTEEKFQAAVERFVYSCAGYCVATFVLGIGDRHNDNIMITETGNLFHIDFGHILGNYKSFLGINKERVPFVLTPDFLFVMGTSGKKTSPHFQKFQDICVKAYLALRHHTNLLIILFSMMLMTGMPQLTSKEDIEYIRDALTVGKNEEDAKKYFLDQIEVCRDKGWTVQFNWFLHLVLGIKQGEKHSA
Assay [8] deals with Breast Cancer Cell Line BT-549. The assay is described as follows: cells. The class given is cell-based. As to conditions: Homo sapiens, BT-549, read-out: inhibition of proliferation.
Assay [9] relates to Ovarian Cell Line OVCAR-8. Nature of the assay: cells. Format: cell-based. To be noted: Homo sapiens, OVCAR-8, read-out: inhibition of proliferation.
The test system of assay [10] is Ovarian Cell Line OVCAR-3. The assay is described as follows: cells. As to conditions: Homo sapiens, OVCAR-3, read-out: inhibition of proliferation.
Where [11] appears, read: HS 578T, single dose, 10 uM compound concentration.
The mark [12] stands for this setting: MOLT-4, read-out: inhibition of proliferation.
Where [13] appears, read: RPMI-8226, read-out: inhibition of proliferation.
Where [14] appears, read: HL-60, read-out: inhibition of proliferation.
[15] abbreviates: UACC-62, read-out: inhibition of proliferation.
Setting [16] is: IGROV-1, read-out: inhibition of proliferation.

Chain of PI3Kα (P42336 whole entry): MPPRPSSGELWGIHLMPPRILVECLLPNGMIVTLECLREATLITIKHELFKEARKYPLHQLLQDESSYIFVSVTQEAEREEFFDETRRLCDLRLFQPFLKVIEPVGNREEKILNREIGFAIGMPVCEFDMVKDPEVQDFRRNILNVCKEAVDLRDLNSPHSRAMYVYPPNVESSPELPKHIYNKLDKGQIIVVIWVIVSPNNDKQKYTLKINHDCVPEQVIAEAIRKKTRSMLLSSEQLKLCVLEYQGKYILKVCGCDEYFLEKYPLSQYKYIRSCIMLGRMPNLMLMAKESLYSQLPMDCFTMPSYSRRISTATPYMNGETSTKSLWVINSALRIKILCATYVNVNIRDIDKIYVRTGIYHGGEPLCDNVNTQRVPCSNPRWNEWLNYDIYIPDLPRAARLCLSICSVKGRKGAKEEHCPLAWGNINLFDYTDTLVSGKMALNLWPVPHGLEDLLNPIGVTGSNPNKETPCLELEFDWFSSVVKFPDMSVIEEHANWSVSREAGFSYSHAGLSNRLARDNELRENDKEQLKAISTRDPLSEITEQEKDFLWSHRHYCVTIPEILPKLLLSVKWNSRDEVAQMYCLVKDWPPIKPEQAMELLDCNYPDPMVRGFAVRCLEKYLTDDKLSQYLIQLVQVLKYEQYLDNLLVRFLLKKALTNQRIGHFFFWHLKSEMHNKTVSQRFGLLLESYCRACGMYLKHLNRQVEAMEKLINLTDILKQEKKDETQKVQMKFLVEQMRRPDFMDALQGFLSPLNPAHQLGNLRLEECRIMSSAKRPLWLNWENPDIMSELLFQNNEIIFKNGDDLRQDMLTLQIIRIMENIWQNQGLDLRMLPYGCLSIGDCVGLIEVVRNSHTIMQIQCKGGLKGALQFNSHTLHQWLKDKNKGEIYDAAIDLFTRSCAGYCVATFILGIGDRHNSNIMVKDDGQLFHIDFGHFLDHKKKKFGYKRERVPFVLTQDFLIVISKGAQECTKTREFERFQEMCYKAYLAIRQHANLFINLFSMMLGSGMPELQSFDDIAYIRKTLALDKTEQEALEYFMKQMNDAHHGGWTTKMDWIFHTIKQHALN
Chain of PI3Kα (P27986 whole entry partner): as the sequence (P27986 whole entry partner) above

`CC[C@H](Nc1nc(N)nc(C)c1C#N)c1nc2cccc(N3CCC(CC(=O)NO)CC3)c2c(=O)n1-c1ccccc1` [XLIX, (S)-2-(1-(2-(1-((2-amino-5-cyano-6-methylpyrimidin-4-yl)amino)propyl)-4-oxo-3-phenyl-3,4-dihydroquinazolin-5-yl)piperidin-4-yl)-N-hydroxyacetamide]: the inhibition at 1 µM at PI3Kδ was greater than 90%; on HDAC6, less than 90%. The inhibition at 10 µM in [1] (single dose, 10 uM compound concentration) is 25 to 50%; in assay [2] (HL-60(TB), single dose, 10 uM compound concentration, read-out: inhibition of proliferation), 25 to 50%; in assay [3] (UACC-62, single dose, 10 uM compound concentration, read-out: inhibition of proliferation) it was 25 to 50%; with Ovarian Cell Line IGROV1 (IGROV-1, IGROV1, single dose, 10 uM compound concentration, read-out: inhibition of proliferation), 25 to 50%; in assay [4] (setting [11]), 25 to 50%; in assay [5] it was 25 to 50%.

Turning to `CC[C@H](Nc1ncnc2[nH]cnc12)c1nc2cccc(CCCCC(=O)NO)c2c(=O)n1-c1ccccc1` [XII, (S)-5-(2-(1-((9H-purin-6-yl)amino)propyl)-4-oxo-3-phenyl-3,4-dihydroquinazolin-5-yl)-N-hydroxypentanamide], the inhibition at 10 µM was 25 to 50% in assay [1]; 25 to 50% in assay [6] (setting [12]); greater than 50% in [7] (setting [13]); greater than 50% in the assay with Leukemia Cell Line SR; 25 to 50% in assay [4] (Hs-578T); 25 to 50% in assay [5].

Regarding `CC[C@H](Nc1ncnc2[nH]cnc12)c1nc2cccc(CCCCNC(=O)NO)c2c(=O)n1-c1ccccc1` [Compound XXIV], the half-inhibitory concentration (IC50) on PI3Kδ (symbols ++ / +, read-out: PI3Kδ Inhibition Activity (IC50 class)) is less than 100 nM; on HDAC6 (symbols ++ / +, read-out: HDAC6 Inhibition Activity (IC50 class)) it was greater than 100 nM. The inhibition at 1 µM at PI3Kα is less than 85%; at PI3Kβ, less than 85%; against PI3Kγ, 91%. Besides, the inhibition at 10 µM in assay [1] is 25 to 50%; in [2] (setting [14]), greater than 50%; in the assay with Leukemia Cell Line SR it was 25 to 50%; in [3] (setting [15]), 25 to 50%; in the assay on Ovarian Cell Line IGROV1 (setting [16]) it was greater than 50%; in assay [4] (Hs-578T), 25 to 50%. The inhibition at 10 µM in [8] and in assay [5] was 25 to 50% each time.

For `CC[C@H](Nc1cc(C)nc(N)n1)c1nc2cccc(NCc3ccc(C(=O)NO)cc3)c2c(=O)n1-c1ccccc1` [XLI, (S)-4-(((2-(1-((2-amino-6-methylpyrimidin-4-yl)amino)propyl)-4-oxo-3-phenyl-3,4-dihydroquinazolin-5-yl)amino)methyl)-N-hydroxybenzamide], the inhibition at 10 µM (in [1]; in assay [2] (setting [14]); in assay [6] (setting [12]); in assay [7] (setting [13]); in [3] (setting [15]); in the assay on Ovarian Cell Line IGROV1 (setting [16])) was greater than 50% each time. Moreover, the inhibition at 10 µM in assay [9], in assay [4] (Hs-578T), in [8], in assay [10] and in assay [5] was greater than 50% in each case.

Consider `CC[C@H](Nc1ncnc2[nH]cnc12)c1nc(N2CCN(c3nc(C(=O)NO)co3)CC2)c2ccccc2n1` [XXXIII, (S)-2-(4-(2-(1-((9H-purin-6-yl)amino)propyl)quinazolin-4-yl)piperazin-1-yl)-N-hydroxyoxazole-4-carboxamide], for which the inhibition at 1 µM at PI3Kδ was less than 90%; at PI3Kα, less than 85%; at PI3Kβ, less than 85%; against PI3Kγ, less than 85%; at HDAC6, greater than 90%.

Turning to `CC[C@H](Nc1ncnc2[nH]cnc12)c1nc2cccc(CC(=O)c3ccc(C(=O)NO)cc3)c2c(=O)n1-c1ccccc1` [Compound I, (S)-4-(2-(2-(1-((9H-purin-6-yl)amino)propyl)-4-oxo-3-phenyl-3,4-dihydroquinazolin-5-yl)acetyl)-N-hydroxybenzamide], the inhibition at 1 µM at PI3Kδ was greater than 90%; against PI3Kα, less than 85%; against PI3Kβ, less than 85%; at PI3Kγ it was less than 85%; on HDAC6, greater than 90%. Further, the inhibition at 10 µM in assay [6] (MOLT-4, single dose, 10 uM compound concentration, read-out: inhibition of proliferation) was 25 to 50%; in assay [7] (RPMI-8226, single dose, 10 uM compound concentration, read-out: inhibition of proliferation), greater than 50%; in the assay on Leukemia Cell Line SR (SR, single dose, 10 uM compound concentration), 25 to 50%; in assay [4] (setting [11]), 25 to 50%; in [5] it was 25 to 50%.
